ChEMBL document CHEMBL1129163, “Nucleosides and nucleotides. 155. synthesis, antitumor effects, and possible enzymatic activation mechanism of 5-phosphatidyl-2-deoxy-2-methylenecytidine (DMDC)” (1996)

Tests used:
Mus musculus [1] = test: Compound was evaluated for the antitumor activity against i.p.-implanted M5076 sarcoma in mice for a dose of 0.125 mM/kg/day on days 1-5.; format: functional
Mus musculus [2] = test: Compound was evaluated for the antitumor activity against i.p.-implanted L1210 leukemia in mice for a dose of 0.125 mM/kg/day given orally on days 1-5.; format: functional
Mus musculus [3] = test: Compound was evaluated for the antitumor activity against i.p.-implanted M5076 sarcoma by measuring 60 day survivor in four mice a dose of 0.125 mM/kg/day given orally on days 1-5.; format: functional
Mus musculus [4] = test: Compound was evaluated for the antitumor activity against i.p.-implanted M5076 sarcoma by measuring 60 day survivor in four mice a dose of 0.40 mM/kg/day given orally on days 1-5.; format: functional
Mus musculus [5] = test: Compound was evaluated for the antitumor activity against i.p.-implanted M5076 sarcoma in mice for a dose of 0.40 mM/kg/day given intraperitoneally on days 1-5.; format: functional
Mus musculus [6] = test: Compound was evaluated for the antitumor activity against i.p.-implanted M5076 sarcoma by measuring 60 day survivor in four mice at a dose of 0.40 mM/kg/day given orally on days 1-5.; format: functional
Mus musculus [7] = test: Compound was evaluated for the antitumor activity against i.p.-implanted M5076 sarcoma in four mice for a dose of 0.40 mM/kg/day given intraperitoneally on days 1-5; Toxic; format: functional, organism-based

SMILES	ILS (Mus musculus [1])	ILS (Mus musculus [2])	Survivors (Mus musculus [3])	Survivors (Mus musculus [4])	ILS (Mus musculus [5])	Survivors (Mus musculus [6])	ILS (Mus musculus [7])
C=C1C(n2ccc(N)nc2=O)O[C@H](CO)[C@@H]1O (some centres undefined)	44%	68%	0	0	116%	–	–
C=C1[C@H](n2ccc(N)nc2=O)O[C@H](COP(=O)([O-])OC[C@@H](COC(=O)CCCCCCCCCCCCCCC)OC(=O)CCCCCCCCCCCCCCC)[C@H]1O.[Na+]	121%	64%	1	–	>179%	4	–
C=C1[C@H](n2cc(F)c(N)nc2=O)O[C@H](COP(=O)([O-])OC[C@H](COC(=O)CCCCCCCCCCCCCCC)OC(=O)CCCCCCCCCCCCCCC)[C@H]1O.[Na+]	>179%	96%	3	–	–	–	Toxic
